Results: patent publication US20090105266A1, “Organic compounds” (priority 2007, published 2009)

Target: T1, mGluR5 (Homo sapiens, UniProt P41594)
T1 construct: expressed in transfected cells
Assay: inhibition of the glutamate (agonist) induced elevation of the inositol phosphate turnover
Format: cell-based
Details: inhibition of glutamate induced elevation of inositol phosphate turnover at 0.1 μM
Text: This can be determined in vitro for example at recombinant human metabotropic glutamate receptors, especially PLC-coupled subtypes thereof such as mGluR5, using different procedures like, for example, measurement of the inhibition of the agonist induced elevation of intracellular Ca^2+ concentration in accordance with L. P. Daggett et al., Neuropharm. Vol. 34, pages 871-886 (1995), P. J. Flor et al., J. Neurochem. Vol. 67, pages 58-63 (1996) or by determination to what extent the agonist induced elevation of the inositol phosphate turnover is inhibited as described by T. Knoepfel et al., Eur. J. Pharmacol. Vol. 288, pages 389-392 (1994), L. P. Daggett et al., Neuropharm. Vol. 67, pages 58-63 (1996) and references cited therein. Isolation and expression of human mGluR subtypes are described in U.S. Pat. No. 5,521,297. Selected agents of the invention show IC50 values for the inhibition of the agonist (e.g. glutamate or quisqualate) induced elevation of intracellular Ca2+ concentration or the agonist (e.g. glutamate or quisqualate) induced inositol phosphate turnover, measured in recombinant cells expressing hmGluR^5a of about 0.1 nM to about 50 μM.
Activity of compounds of the present invention was examined by determination to what extent the agonist induced elevation of the inositol phosphate turnover is inhibited as described by T. Knoepfel et al., Eur. J. Pharmacol. Vol. 288, pages 389-392 (1994), L. P. Daggett et al., Neuropharm. Vol. 67, pages 58-63 (1996) and references cited therein.
The table below represents percentages of inhibition of the glutamate induced elevation of the inositol phosphate turnover at a concentration of 0.1 μM.

T1 sequence (P41594 21-1180 isoform P41594-2 limits assumed): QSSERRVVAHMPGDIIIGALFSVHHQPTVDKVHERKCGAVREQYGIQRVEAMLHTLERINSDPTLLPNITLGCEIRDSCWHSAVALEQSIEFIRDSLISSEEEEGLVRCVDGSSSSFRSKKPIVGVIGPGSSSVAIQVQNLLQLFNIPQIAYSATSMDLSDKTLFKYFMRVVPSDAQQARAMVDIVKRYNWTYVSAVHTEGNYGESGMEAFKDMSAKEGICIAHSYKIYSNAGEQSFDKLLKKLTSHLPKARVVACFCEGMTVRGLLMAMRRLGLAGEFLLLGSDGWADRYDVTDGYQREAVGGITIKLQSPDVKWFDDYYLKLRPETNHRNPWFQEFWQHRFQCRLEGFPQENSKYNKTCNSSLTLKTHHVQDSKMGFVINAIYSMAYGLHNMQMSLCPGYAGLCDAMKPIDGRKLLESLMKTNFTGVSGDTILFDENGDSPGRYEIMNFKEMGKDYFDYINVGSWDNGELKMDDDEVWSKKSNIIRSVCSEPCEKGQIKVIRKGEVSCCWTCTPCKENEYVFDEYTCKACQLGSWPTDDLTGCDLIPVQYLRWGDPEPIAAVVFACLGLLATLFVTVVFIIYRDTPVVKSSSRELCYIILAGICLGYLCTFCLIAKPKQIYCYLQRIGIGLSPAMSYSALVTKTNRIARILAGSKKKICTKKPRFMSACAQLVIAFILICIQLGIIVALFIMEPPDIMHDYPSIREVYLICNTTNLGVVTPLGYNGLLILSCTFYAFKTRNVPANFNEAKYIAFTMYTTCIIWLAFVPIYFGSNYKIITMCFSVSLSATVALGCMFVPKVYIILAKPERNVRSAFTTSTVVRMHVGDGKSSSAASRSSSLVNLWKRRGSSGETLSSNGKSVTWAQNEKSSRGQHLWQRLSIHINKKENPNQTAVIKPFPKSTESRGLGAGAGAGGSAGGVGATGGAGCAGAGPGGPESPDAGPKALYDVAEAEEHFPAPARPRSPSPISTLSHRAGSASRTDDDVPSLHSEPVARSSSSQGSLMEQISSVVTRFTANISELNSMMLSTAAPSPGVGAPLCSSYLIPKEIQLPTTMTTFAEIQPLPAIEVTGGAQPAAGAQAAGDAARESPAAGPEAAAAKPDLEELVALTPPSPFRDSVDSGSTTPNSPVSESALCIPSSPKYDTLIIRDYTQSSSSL

inhibition at 0.1 µM	Compound
98%	CCCn1c(-c2ccc(Nc3ccc(OC)cc3)c(Cl)c2)nc2cccc(Cl)c21 [Example 97, [2-Chloro-4-(7-chloro-1-propyl-1H-benzoimidazol-2-yl)-phenyl]-(4-methoxy-phenyl)-amine]
103%	CCCn1c(-c2ccc(Nc3ccc(C)nc3)c(Cl)c2)nc2cccc(Cl)c21 [Example 98, [2-Chloro-4-(7-chloro-1-propyl-1H-benzoimidazol-2-yl)-phenyl]-(6-methyl-pyridin-3-yl)-amine]
99%	CCCn1c(-c2ccc(Nc3ccc(OC)cc3)nc2)nc2cccc(Cl)c21 [Example 99, [5-(7-Chloro-1-propyl-1H-benzoimidazol-2-yl)-pyridin-2-yl]-(4-methoxy-phenyl)-amine]
100%	CCCn1c(-c2ccc(Nc3ccc(C)nc3)nc2)nc2cccc(Cl)c21 [Example 100, [5-(7-Chloro-1-propyl-1H-benzoimidazol-2-yl)-pyridin-2-yl]-(6-methyl-pyridin-3-yl)-amine]
95%	CCCn1c(-c2ccc(Nc3ccc(Cl)cc3)nc2)nc2cccc(Cl)c21 [Example 101, (4-Chloro-phenyl)-[5-(7-chloro-1-propyl-1H-benzoimidazol-2-yl)-pyridin-2-yl]-amine]
90%	CCCn1c(-c2ccc(Nc3ccc(C)nc3)nc2)nc2ccccc21 [Example 102, (6-Methyl-pyridin-3-yl)-[5-(1-propyl-1H-benzoimidazol-2-yl)-pyridin-2-yl]-amine]
97%	CCCn1c(-c2ccc(Nc3ccc(C)cc3)nc2)nc2cccc(Cl)c21 [Example 103, [5-(7-Chloro-1-propyl-1H-benzoimidazol-2-yl)-pyridin-2-yl]-p-tolyl-amine]
84%	CCCn1c(-c2ccc(Nc3ccc(Cl)cc3)nc2)nc2ccc(F)cc21 [Example 104, (4-Chloro-phenyl)-[5-(6-fluoro-1-propyl-1H-benzoimidazol-2-yl)-pyridin-2-yl]-amine]
85%	CCCn1c(-c2ccc(Nc3ccc(C)nc3)nc2)nc2ccc(F)cc21 [Example 105, [5-(6-Fluoro-1-propyl-1H-benzoimidazol-2-yl)-pyridin-2-yl]-(6-methyl-pyridin-3-yl)-amine]
70%	CCCn1c(-c2ccc(Nc3ccc(C)cc3)nc2)nc2ccc(F)cc21 [Example 106, [5-(6-Fluoro-1-propyl-1H-benzoimidazol-2-yl)-pyridin-2-yl]-p-tolyl-amine]
64%	CCCn1c(-c2ccc(Nc3ccc(OC)cc3)nc2)nc2ccc(F)cc21 [Example 107, [5-(6-Fluoro-1-propyl-1H-benzoimidazol-2-yl)-pyridin-2-yl]-(4-methoxy-phenyl)-amine]
98%	Cc1ccc(Nc2ccc(-c3nc4cccc(Cl)c4n3CC(C)C)cn2)cc1 [Example 108, [5-(7-Chloro-1-isobutyl-1H-benzoimidazol-2-yl)-pyridin-2-yl]-p-tolyl-amine]
91%	CC(C)Cn1c(-c2ccc(Nc3ccc(Cl)cc3)nc2)nc2cccc(Cl)c21 [Example 109, [5-(7-Chloro-1-isobutyl-1H-benzoimidazol-2-yl)-pyridin-2-yl]-(4-chloro-phenyl)-amine]
95%	COc1ccc(Nc2ccc(-c3nc4cccc(Cl)c4n3CC(C)C)cn2)cc1 [Example 110, [5-(7-Chloro-1-isobutyl-1H-benzoimidazol-2-yl)-pyridin-2-yl]-(4-methoxy-phenyl)-amine]
97%	Cc1ccc(Nc2ccc(-c3nc4cccc(Cl)c4n3CC(C)C)cn2)cn1 [Example 111, [5-(7-Chloro-1-isobutyl-1H-benzoimidazol-2-yl)-pyridin-2-yl]-(6-methyl-pyridin-3-yl)-amine]
99%	CCCn1c(-c2cnc(Nc3ccc(OC)cc3)c(Cl)c2)nc2ccccc21 [Example 114, [3-Chloro-5-(1-propyl-1H-benzoimidazol-2-yl)-pyridin-2-yl]-(4-methoxy-phenyl)-amine]
100%	COc1ccc(Nc2ncc(-c3nc4cccc(Cl)c4n3CC(C)C)cc2Cl)cc1 [Example 114b, [3-chloro-5-(7-chloro-1-isobutyl-1H-benzoimidazol-2-yl)-pyridin-2-yl]-(4-methoxy-phenyl)-amine]
111%	Cc1ccc(Nc2ncc(-c3nc4cccc(Cl)c4n3CC(C)C)cc2Cl)cn1 [Example 114c, [3-chloro-5-(7-chloro-1-isobutyl-1H-benzoimidazol-2-yl)-pyridin-2-yl]-(6-methyl-pyridin-3-yl)-amine]
82%	CCCn1c(-c2ccc(Nc3ccc(OC)cc3)nc2)nc2cccc(F)c21 [Example 114d, [5-(7-fluoro-1-propyl-1H-benzoimidazol-2-yl)-pyridin-2-yl]-(4-methoxy-phenyl)-amine]
99%	CCCn1c(-c2ccc(Nc3ccc(C)nc3)c(Cl)c2)nc2ccc(F)cc21 [Example 115, [2-Chloro-4-(6-Fluoro-1-propyl-1H-benzoimidazol-2-yl)-phenyl]-(6-methyl-pyridin-3-yl)-amine]
100%	Cc1ccc(Nc2ccc(-c3nc4cccc(Cl)c4n3CC(C)C)cc2Cl)cn1 [Example 116, [2-Chloro-4-(7-Chloro-1-isobutyl-1H-benzoimidazol-2-yl)-phenyl]-(6-methyl-pyridin-3-yl)-amine]
